Laboratory results reported in ChEMBL document CHEMBL3885881, “DrugMatrix”.

Species: Rattus norvegicus
Test: DrugMatrix - Regimen: Daily Repeat
Assay type: toxicity, organism-based, Sprague-Dawley
Parameters: regimen Daily Repeat, gender Male, age 6-8 weeks
Settings: in vivo, po, 1500 mg/kg, route oral GAVAGE, dose level High, vehicle 100 % WATER; for ALANINE AMINOTRANSFERASE / ALBUMIN / ALKALINE PHOSPHATASE / ASPARTATE AMINOTRANSFERASE / BLOOD UREA NITROGEN / CARBON DIOXIDE / CHLORIDE / CHOLESTEROL / CREATINE PHOSPHOKINASE / CREATININE / GLUCOSE / LACTATE DEHYDROGENASE / LIPASE / PHOSPHORUS / POTASSIUM / SODIUM / TOTAL BILIRUBIN / TOTAL PROTEIN / URIC ACID: tissue Plasma
[1] = 120 h, tissue Blood, time 5 day

CCCC(CCC)C(=O)O [VALPROIC ACID]
ABSOLUTE EOSINOPHIL (72 h, tissue Blood, time 3 day): 0 CELLS/uL | ABSOLUTE LYMPHOCYTE (72 h, tissue Blood, time 3 day): 4940.67 CELLS/uL | ABSOLUTE MONOCYTE (72 h, tissue Blood, time 3 day): 35.67 CELLS/uL | ABSOLUTE SEGMENTED NEUTROPHIL (72 h, tissue Blood, time 3 day): 257 CELLS/uL | BASOPHIL (72 h, tissue Blood, time 3 day): 0% | EOSINOPHIL (72 h, tissue Blood, time 3 day): 0% | ERYTHROCYTE COUNT (72 h, tissue Blood, time 3 day): 5.94 x10E6/uL | HEMATOCRIT (72 h, tissue Blood, time 3 day): 37.3% | LEUKOCYTE COUNT (72 h, tissue Blood, time 3 day): 5.23 x10E3/uL | LYMPHOCYTE (72 h, tissue Blood, time 3 day): 94.33% | MEAN CORPUSCULAR HEMOGLOBIN (72 h, tissue Blood, time 3 day): 23.37 pg | MEAN CORPUSCULAR HEMOGLOBIN CONCENTRATION (72 h, tissue Blood, time 3 day): 37.17 G/DL | MEAN CORPUSCULAR VOLUME (72 h, tissue Blood, time 3 day): 62.83 fL | MONOCYTE (72 h, tissue Blood, time 3 day): 0.67% | NEUTROPHIL (72 h, tissue Blood, time 3 day): 5% | NUCLEATED RED BLOOD CELLS (72 h, tissue Blood, time 3 day): 0 /100WBC | PLATELET COUNT (72 h, tissue Blood, time 3 day): 901.67 x10E3/uL | ALANINE AMINOTRANSFERASE (72 h, time 3 day): 32.33 u/L | ALBUMIN (72 h, time 3 day): 4.5 G/DL | ALKALINE PHOSPHATASE (72 h, time 3 day): 225.67 u/L | ASPARTATE AMINOTRANSFERASE (72 h, time 3 day): 77.67 u/L | BLOOD UREA NITROGEN (72 h, time 3 day): 10.67 mg/dL | CARBON DIOXIDE (72 h, time 3 day): 26 mmol/L | CHLORIDE (72 h, time 3 day): 104 MEQ/L | CHOLESTEROL (72 h, time 3 day): 42.67 mg/dL | CREATINE PHOSPHOKINASE (72 h, time 3 day): 120 u/L | CREATININE (72 h, time 3 day): 0.22 mg/dL | GLUCOSE (72 h, time 3 day): 138 mg/dL | LACTATE DEHYDROGENASE (72 h, time 3 day): 112 u/L | LIPASE (72 h, time 3 day): 7.67 u/L | PHOSPHORUS (72 h, time 3 day): 14.3 mg/dL | POTASSIUM (72 h, time 3 day): 6.21 MEQ/L | SODIUM (72 h, time 3 day): 146.87 MEQ/L | TOTAL BILIRUBIN (72 h, time 3 day): 0.1 mg/dL | TOTAL PROTEIN (72 h, time 3 day): 5.87 G/DL | URIC ACID (72 h, time 3 day): 1.7 mg/dL | ABSOLUTE BASOPHIL [1]: 0 CELLS/uL | ABSOLUTE EOSINOPHIL [1]: 7.25 CELLS/uL | ABSOLUTE LYMPHOCYTE [1]: 3923.75 CELLS/uL | ABSOLUTE MONOCYTE [1]: 124 CELLS/uL | ABSOLUTE SEGMENTED NEUTROPHIL [1]: 320 CELLS/uL | BASOPHIL [1]: 0% | EOSINOPHIL [1]: 0.25% | ERYTHROCYTE COUNT [1]: 6.03 x10E6/uL | HEMATOCRIT [1]: 36.38% | LEUKOCYTE COUNT [1]: 4.38 x10E3/uL | LYMPHOCYTE [1]: 91% | MEAN CORPUSCULAR HEMOGLOBIN [1]: 22.62 pg | MEAN CORPUSCULAR HEMOGLOBIN CONCENTRATION [1]: 37.5 G/DL | MEAN CORPUSCULAR VOLUME [1]: 60.35 fL | MONOCYTE [1]: 2.25% | NEUTROPHIL [1]: 6.5% | NUCLEATED RED BLOOD CELLS [1]: 0 /100WBC | PLATELET COUNT [1]: 549.5 x10E3/uL | ALANINE AMINOTRANSFERASE (120 h, time 5 day): 52.5 u/L | ALBUMIN (120 h, time 5 day): 4.57 G/DL | ALKALINE PHOSPHATASE (120 h, time 5 day): 204.25 u/L | ASPARTATE AMINOTRANSFERASE (120 h, time 5 day): 132 u/L | BLOOD UREA NITROGEN (120 h, time 5 day): 15.75 mg/dL | CARBON DIOXIDE (120 h, time 5 day): 28 mmol/L | CHLORIDE (120 h, time 5 day): 105.75 MEQ/L | CHOLESTEROL (120 h, time 5 day): 53.5 mg/dL | CREATINE PHOSPHOKINASE (120 h, time 5 day): 1153.75 u/L | CREATININE (120 h, time 5 day): 0.25 mg/dL | GLUCOSE (120 h, time 5 day): 150.25 mg/dL | LACTATE DEHYDROGENASE (120 h, time 5 day): 237.5 u/L | LIPASE (120 h, time 5 day): 8.25 u/L | PHOSPHORUS (120 h, time 5 day): 13.5 mg/dL | POTASSIUM (120 h, time 5 day): 6.62 MEQ/L | SODIUM (120 h, time 5 day): 146.95 MEQ/L | TOTAL BILIRUBIN (120 h, time 5 day): 0.15 mg/dL | TOTAL PROTEIN (120 h, time 5 day): 5.9 G/DL | URIC ACID (120 h, time 5 day): 1.88 mg/dL
